Measurements reported in PMC12207590, “Substrate Specificity of the Organic Cation Transporters MATE1 and MATE2K and Functional Overlap with OCT1 and OCT2” (Journal of Medicinal Chemistry, 2025).
Like-named read-outs stand apart in the source and are kept apart here. Values belong to the compound of their own block, whether it stands above or below them.

Key:
MATE1 = biological target: T1, MATE1 (Homo sapiens, UniProt Q96FL8); assay: Uptake ratio in MATE1-overexpressing HEK293 cells vs empty vector (2.5 μM, 1 min, HPLC-MS/MS); format: cell-based; set-up: key to MATE1 substrate*: 1 = substrate; 0 = no substrate
T1 sequence (Q96FL8 1-570): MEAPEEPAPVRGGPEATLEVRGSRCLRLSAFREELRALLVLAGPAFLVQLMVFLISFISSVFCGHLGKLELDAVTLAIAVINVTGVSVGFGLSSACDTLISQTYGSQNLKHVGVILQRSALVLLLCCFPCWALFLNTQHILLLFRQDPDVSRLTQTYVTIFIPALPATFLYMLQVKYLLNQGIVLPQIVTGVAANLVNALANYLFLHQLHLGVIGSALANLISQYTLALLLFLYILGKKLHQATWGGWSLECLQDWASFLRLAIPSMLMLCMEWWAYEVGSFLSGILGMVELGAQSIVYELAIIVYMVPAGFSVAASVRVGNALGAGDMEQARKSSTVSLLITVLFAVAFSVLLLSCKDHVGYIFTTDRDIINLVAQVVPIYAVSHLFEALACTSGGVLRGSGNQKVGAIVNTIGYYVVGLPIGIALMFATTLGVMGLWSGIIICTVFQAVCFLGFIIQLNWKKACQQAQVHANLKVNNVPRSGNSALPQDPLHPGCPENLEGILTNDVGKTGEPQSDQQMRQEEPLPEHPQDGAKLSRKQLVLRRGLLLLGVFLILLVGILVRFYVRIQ

MATE2K = MATE2K (Homo sapiens, UniProt Q86VL8); assay: Uptake ratio in MATE2K-overexpressing HEK293 cells vs empty vector (2.5 μM, 1 min, HPLC-MS/MS); format: cell-based; set-up: key to MATE2 substrate*: 1 = substrate; 0 = no substrate
Chain of MATE2K (Q86VL8 1-566 isoform Q86VL8-3): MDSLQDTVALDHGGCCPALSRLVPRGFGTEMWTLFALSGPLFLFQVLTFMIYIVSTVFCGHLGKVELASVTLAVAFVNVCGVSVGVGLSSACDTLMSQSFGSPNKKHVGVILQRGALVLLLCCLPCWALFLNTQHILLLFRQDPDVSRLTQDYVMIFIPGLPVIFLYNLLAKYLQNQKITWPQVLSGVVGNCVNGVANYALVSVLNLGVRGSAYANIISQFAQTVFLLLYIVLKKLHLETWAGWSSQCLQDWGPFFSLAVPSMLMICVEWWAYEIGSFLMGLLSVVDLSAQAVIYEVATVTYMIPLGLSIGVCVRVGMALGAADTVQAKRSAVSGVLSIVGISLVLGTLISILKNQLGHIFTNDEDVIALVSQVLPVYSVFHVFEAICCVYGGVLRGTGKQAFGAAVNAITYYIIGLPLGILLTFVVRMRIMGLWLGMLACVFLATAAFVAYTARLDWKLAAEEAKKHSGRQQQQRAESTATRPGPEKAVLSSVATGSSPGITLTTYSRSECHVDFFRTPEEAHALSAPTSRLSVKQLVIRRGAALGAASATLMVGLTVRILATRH

[1] = fold uptake over empty vector, 2.5 μM, 1 min
[2] = mean ratio of uptake in MATE1-overexpressing HEK293 cells vs empty vector, 2.5 μM, 1 min
[3] = mean ratio of uptake in MATE2K-overexpressing HEK293 cells vs empty vector, 2.5 μM, 1 min
[4] = uptake ratio MATE1-overexpressing vs empty-vector HEK293 cells, 2.5 μM, 1 min, mean
[5] = uptake ratio MATE2K-overexpressing vs empty-vector HEK293 cells, 2.5 μM, 1 min, mean

SMILES: NC(N)=NCCCC[C@H](N)C(=O)O [Homoarginine]
MATE1 ratio (MATE1): 0.97
MATE2K ratio (MATE2K): 0.97

MATE1 ratio (MATE1; [1]): 9.59
MATE1 (uptake ratio) (MATE1; [2]): 9.59
MATE2K ratio (MATE2K; [1]): 3.34
MATE2 (uptake ratio) (MATE2K; [3]): 3.34
SMILES: N=C(N)N1Cc2ccccc2C(O)C1 (stereo not drawn) [4-Hydroxydebrisoquine]

SMILES: COc1ccc([C@@H](CN(C)C)C2(O)CCCCC2)cc1 [Venlafaxine (S)]
MATE1 (MATE1): 1.22
MATE2 (MATE2K): 1.44

MATE1 ratio (MATE1; [1]): 0.23
MATE1 (uptake ratio) (MATE1; [2]): 0.23
MATE2K ratio (MATE2K; [1]): 0.97
MATE2 (uptake ratio) (MATE2K; [3]): 0.97
SMILES: CC(C[N+](C)(C)C)OC(N)=O (stereo not drawn) [Bethanechol]

MATE1 substrate* (MATE1; Table S4): 0
MATE1 (MATE1; [4]): 1.12
MATE2 substrate* (MATE2K; Table S4): 0
MATE2 (MATE2K; [5]): 0.9
SMILES: O=c1ncccn1[C@@H]1O[C@H](CO)[C@@H](O)[C@H]1O [Zebularine]

SMILES: CCCCC[C@H](O)/C=C/[C@H]1[C@H](O)CC(=O)[C@@H]1C/C=C\CCCC(=O)O [Prostaglandin E2]
MATE1 (MATE1): 1.35
MATE1 ratio (MATE1): 1.35
MATE2 (MATE2K): 1.21
MATE2K ratio (MATE2K): 1.21

SMILES: CCN1C[C@]2(COC)[C@H](O)C[C@H](OC)[C@@]34[C@@H]5C[C@@]6(O)[C@H](OC(=O)c7ccccc7)[C@@H]5[C@@](OC(C)=O)([C@@H]([C@H](OC)[C@H]23)[C@@H]14)[C@@H](O)[C@@H]6OC [Aconitine]
MATE1 (uptake ratio) (MATE1): 1.13
MATE1 ratio (MATE1): 1.13
MATE2 (uptake ratio) (MATE2K): 1.32
MATE2K ratio (MATE2K): 1.32

MATE1 (MATE1; [4]): 1.12
MATE2 (MATE2K; [5]): 1.3
SMILES: CCCCNc1ccc(C(=O)OCCN(C)C)cc1 [Tetracaine]

MATE1 ratio (MATE1; [1]): 1.48
MATE2K ratio (MATE2K; [1]): 1.71
SMILES: CC(C)(CO)[C@@H](O)C(=O)NCCC(=O)O [Pantothenic acid]

MATE1 ratio (MATE1; [1]): 1.06
MATE1 (uptake ratio) (MATE1; [2]): 1.06
MATE2K ratio (MATE2K; [1]): 1.01
MATE2 (uptake ratio) (MATE2K; [3]): 1.01
SMILES: CCN1CCN(Cc2ccc(Nc3ncc(F)c(-c4cc(F)c5nc(C)n(C(C)C)c5c4)n3)nc2)CC1 [Abemaciclib]

SMILES: Oc1ncnc2[nH]ncc12 [Allopurinol]
MATE1 ratio (MATE1; [1]): 1.08
MATE1 (uptake ratio) (MATE1; [2]): 1.08
MATE2K ratio (MATE2K; [1]): 0.85
MATE2 (uptake ratio) (MATE2K; [3]): 0.85

MATE1 ratio (MATE1; [1]): 2.02
MATE2K ratio (MATE2K; [1]): 1.78
SMILES: COc1nc(C)nc(Cl)c1N=C1NCCN1 [Moxonidine]

SMILES: CC(NC(C)(C)CO)C(=O)c1cccc(Cl)c1 (stereo not drawn) [Hydroxybupropion]
MATE1 ratio (MATE1): 1.09
MATE2K ratio (MATE2K): 1.51

SMILES: NCCc1cc(O)c(O)cc1O [6-Hydroxydopamine]
MATE1 (uptake ratio) (MATE1): 1.05
MATE1 ratio (MATE1): 1.05
MATE2 (uptake ratio) (MATE2K): 1.24
MATE2K ratio (MATE2K): 1.24

SMILES: COc1cc2c(cc1OC)[C@H](C)NCC2 [Salsolidine]
MATE1 (MATE1): 1.24
MATE1 ratio (MATE1): 1.24
MATE2 (MATE2K): 1.46
MATE2K ratio (MATE2K): 1.46

MATE1 ratio (MATE1; [1]): 8.46
MATE1 (uptake ratio) (MATE1; [2]): 8.46
MATE2K ratio (MATE2K; [1]): 7.40
MATE2 (uptake ratio) (MATE2K; [3]): 7.4
SMILES: CCN1CCCC1CNC(=O)c1cc(S(=O)(=O)CC)c(N)cc1OC [Amisulpride (R), Amisulpride]

SMILES: C1CCN2C[C@H]3C[C@H](CN4CCCC[C@@H]34)[C@H]2C1 [Sparteine (-), Sparteine]
MATE1 (MATE1): 2.12
MATE1 ratio (MATE1): 2.12
MATE1 ratio in this study (MATE1): 2.12
MATE2 (MATE2K): 1.66
MATE2K ratio (MATE2K): 1.66
MATE2K ratio in this study (MATE2K): 1.66

SMILES: CNCCc1ccc(O)c(O)c1 [Deoxyepinephrine]
MATE1 ratio (MATE1; [1]): 34.31
MATE2K ratio (MATE2K; [1]): 3.40

MATE1 ratio in this study (MATE1; Table S1, 2.5 μM, 1 min): 0.82
MATE1 ratio (MATE1; [1]): 0.82
MATE1 (uptake ratio) (MATE1; [2]): 0.82
MATE2K ratio in this study (MATE2K; Table S1, 2.5 μM, 1 min): 1.04
MATE2K ratio (MATE2K; [1]): 1.04
MATE2 (uptake ratio) (MATE2K; [3]): 1.04
SMILES: CCS(=O)(=O)N1CC(CC#N)(n2cc(-c3ncnc4[nH]ccc34)cn2)C1 [Baricitinib]

MATE1 ratio in this study (MATE1; Table S1, 2.5 μM, 1 min): 4.80
MATE1 ratio (MATE1; [1]): 4.80
substrate of MATE1 (MATE1; organic anions tested): substrates of MATE1
MATE2K ratio in this study (MATE2K; Table S1, 2.5 μM, 1 min): 2.08
MATE2K ratio (MATE2K; [1]): 2.08
SMILES: C[C@]12CC[C@@H]3c4ccc(OS(=O)(=O)O)cc4CC[C@H]3[C@@H]1CCC2=O [Estrone-3-sulfate]

MATE1 ratio (MATE1; [1]): 1.20
MATE2K ratio (MATE2K; [1]): 1.05
SMILES: CNC1(C)C2CCC(C2)C1(C)C (stereo not drawn) [Mecamylamine]

MATE1 ratio (MATE1; [1]): 1.00
MATE2K ratio (MATE2K; [1]): 0.99
SMILES: CC(=O)Nc1ccc(O)cc1 [Paracetamol]

MATE1 ratio (MATE1; [1]): 1.39
MATE1 (uptake ratio) (MATE1; [2]): 1.39
MATE2K ratio (MATE2K; [1]): 1.38
MATE2 (uptake ratio) (MATE2K; [3]): 1.38
SMILES: CC(=O)c1cc2cccc(OCC(O)CNC(C)C)c2o1 (stereo not drawn) [Befunolol]

MATE1 ratio (MATE1; [1]): 1.42
MATE2K ratio (MATE2K; [1]): 1.23
SMILES: COC(=O)CCc1ccc(OCC(O)CNC(C)C)cc1 (stereo not drawn) [Esmolol]

MATE1 ratio in this study (MATE1; Table S1, 2.5 μM, 1 min): 7.94
MATE1 ratio (MATE1; [1]): 7.94
MATE1 (MATE1; [4]): 7.94
MATE2K ratio in this study (MATE2K; Table S1, 2.5 μM, 1 min): 3.73
MATE2K ratio (MATE2K; [1]): 3.73
MATE2 (MATE2K; [5]): 3.73
SMILES: CC(C)(C)NCC(O)c1ccc(O)c(CO)c1 (stereo not drawn) [Salbutamol]
